Data as given in patent publication US20150307519A1, “SMALL MOLECULES FOR RESTORING FUNCTION TO P53 CANCER MUTANTS” (THE REGENTS OF THE UNIVERSITY OF CALIFORNIA, priority 2014, published 2015).

Tests used:
[1] = test system: Saos-2 cells expressing p53^G245S; assay: Cell count / viability of Saos-2 cells with doxycyclin-inducible p53 G245S; assay type: cell-based; conditions: FIGS. 5A-5C; for p53 G245S-dependent cancer cell cytotoxicity: 27 hours
Excerpt: ACS chemical biology, doi:10.1021/cb3005929 (2013).

G245S DBD = target: T1, G245S DBD (Homo sapiens, UniProt P04637, G245S); assay: DSF thermal stabilization of G245S DBD; assay type: binding; conditions: DSF assay
T1 construct: wild-type p53 protein DBD protein (residues 94-312 of the full length)
Protocol: (§1) To determine whether this stabilization was specific for copper, NSC319725 was also tested after addition of Fe(II)Cl2 and ZnCl2. […] NSC635448, […] were also tested for stabilization of G245S DBD and WT DBD in the DSF assay, yielding analogous results.
(§2) An equivalent volume of DMSO was used as a control. […] Sypro Orange stain (Bio-Rad, Hercules, Calif.) at 5,000× stock concentration was diluted to 5× concentration in 20 mM HEPES at pH 7.4 and added to each well of a 96-well plate. All SLS compounds were independently measured for fluorescence background to eliminate false positive results. […] All DSF assays were performed with a Touch RT-PCR system CFX96 (Bio-Rad) with the starting temperature of 4° C. by increasing the temperature of the plate 1.0° C. per min to 94° C. Fluorescence measurements were taken once every minute during all experiments. Tm values for each well, mean Tm values, and 95% confidence intervals were calculated with the program Prism 5 (GraphPad Software, La Jolla, Calif.) by fitting the raw fluorescence data to a Boltzmann sigmoidal curve.

[2] = target: T2, WT DBD (wild-type p53 DBD protein) (Homo sapiens, UniProt P04637); assay: DSF thermal stabilization of WT DBD; assay type: binding; conditions: DSF assay
T2 construct: wild-type p53 protein DBD protein (residues 94-312 of the full length); made in house; host or cells: Escherichia coli Rosetta 2 (DE3), vector pSE420
Protocol: as §1, §2

**Q.** Which “p53 G245S-dependent cancer cell cytotoxicity” value [1] does the source give for C/C(=N\NC(=S)N(C)C)c1ccccn1 [NSC319725, reference compound] here?
**A.** Its value is “marked”.

**Q.** And the “effect on Tm of G245S DBD (qualitative)” value (G245S DBD)?
**A.** Its value is “no effect or a slight destabilization”.

**Q.** And the “effect on Tm of WT DBD (qualitative)” value [2]?
**A.** Its value is “no effect or a slight destabilization”.

**Q.** Which results are given for NS(=O)(=O)c1nc2nc[nH]c(=O)c2[nH]1 [NSC635448]?
**A.** p53 G245S-dependent cancer cell cytotoxicity [1]: marked; reactivation of p53^G245S in cells [1]: marked efficacy; effect on Tm of G245S DBD (qualitative) (G245S DBD): increased the Tm; effect on Tm of WT DBD (qualitative) [2]: increased the Tm

**Q.** With Cn1ncc2c(Nc3ccc(Br)cc3)nc(Nc3ccc(Br)cc3)nc21 [NSC11667] as the compound, how does the “reactivation of p53^G245S in cells” value [1] read?
**A.** The value was “marked efficacy”.
